Assay results: patent US20240174662A1, “SMALL MOLECULE INHIBITORS OF SALT INDUCIBLE KINASES” (Janssen Biotech, Inc., priority 2021, published 2024)

These molecules were tested against SIK2 (Homo sapiens (Human), UniProt Q9H0K1) (assay: SIK2 Enzymatic Assay Version 2 (High ATP)). Conditions: 3 mM ATP and 200 μM HDAC5tide final, ADP-Glo Max luminescence.
Type: biochemical
Procedure, shortened: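 Luminescent ADP-Glo Max read-out: depletion reagent 2 h, then detection reagent 1 h. Before the reaction, compounds were incubated 30 min with enzyme added at 6 nM (twice final concentration), with all steps at room temperature.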

Chain of SIK2 (Q9H0K1 whole entry, species assumed): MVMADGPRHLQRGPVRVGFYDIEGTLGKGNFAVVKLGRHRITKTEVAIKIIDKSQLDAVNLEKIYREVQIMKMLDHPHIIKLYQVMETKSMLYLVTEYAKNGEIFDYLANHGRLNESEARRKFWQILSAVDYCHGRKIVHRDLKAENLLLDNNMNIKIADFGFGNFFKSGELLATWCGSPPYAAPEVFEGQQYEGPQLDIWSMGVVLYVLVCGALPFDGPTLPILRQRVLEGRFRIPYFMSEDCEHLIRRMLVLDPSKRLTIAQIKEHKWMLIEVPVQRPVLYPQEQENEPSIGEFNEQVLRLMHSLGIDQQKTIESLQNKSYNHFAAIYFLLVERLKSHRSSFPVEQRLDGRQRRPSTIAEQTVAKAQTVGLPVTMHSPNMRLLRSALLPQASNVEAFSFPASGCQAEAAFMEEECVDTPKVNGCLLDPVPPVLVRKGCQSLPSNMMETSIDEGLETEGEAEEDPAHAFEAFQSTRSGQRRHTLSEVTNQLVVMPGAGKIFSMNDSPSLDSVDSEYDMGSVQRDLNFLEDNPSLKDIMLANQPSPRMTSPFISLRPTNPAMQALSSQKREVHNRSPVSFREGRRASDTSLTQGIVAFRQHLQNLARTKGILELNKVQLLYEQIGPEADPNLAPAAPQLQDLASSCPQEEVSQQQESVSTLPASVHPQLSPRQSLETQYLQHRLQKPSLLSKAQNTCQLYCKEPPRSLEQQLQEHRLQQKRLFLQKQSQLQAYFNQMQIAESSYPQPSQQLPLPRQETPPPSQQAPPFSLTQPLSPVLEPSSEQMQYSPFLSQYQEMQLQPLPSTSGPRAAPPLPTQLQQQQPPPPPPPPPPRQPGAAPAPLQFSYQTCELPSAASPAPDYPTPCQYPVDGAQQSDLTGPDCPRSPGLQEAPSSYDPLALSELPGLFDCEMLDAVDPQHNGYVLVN

Compound	IC50 [nM]
Cn1ncc(COC2CCNCC2)c1-c1ccn2nc(NC(=O)C3CC3)cc2c1 [Example 463, N-[5-[2-methyl-4-(4-piperidyloxymethyl)pyrazol-3-yl]pyrazolo[1,5-a]pyridin-2-yl]cyclopropanecarboxamide]	74.5
CN1CC[C@H](OCc2cnn(C)c2-c2ccn3nc(NC(=O)C4CC4)cc3c2)C1 [Example 464, N-[5-[2-methyl-4-[[(3S)-1-methylpyrrolidin-3-yl]oxymethyl]pyrazol-3-yl]pyrazolo[1,5-a]pyridin-2-yl]cyclopropanecarboxamide]	82.8
Cn1ncc(CO[C@@H]2CNC[C@H]2F)c1-c1ccn2nc(NC(=O)C3CC3)cc2c1 [Example 466, N-[5-[4-[[(3R,4R)-4-fluoropyrrolidin-3-yl]oxymethyl]-2-methyl-pyrazol-3-yl]pyrazolo[1,5-a]pyridin-2-yl]cyclopropanecarboxamide]	80.7
CN1C[C@@H](F)[C@H](OCc2cnn(C)c2-c2ccn3nc(NC(=O)C4CC4)cc3c2)C1 [Example 467, N-[5-[4-[[(3R,4R)-4-fluoro-1-methyl-pyrrolidin-3-yl]oxymethyl]-2-methyl-pyrazol-3-yl]pyrazolo[1,5-a]pyridin-2-yl]cyclopropanecarboxamide]	113
CCC1(OCc2cnn(C)c2-c2ccn3nc(NC(=O)C4CC4)cc3c2)CN(C)C1 [Example 468, N-[5-[4-[(3-ethyl-1-methyl-azetidin-3-yl)oxymethyl]-2-methyl-pyrazol-3-yl]pyrazolo[1,5-a]pyridin-2-yl]cyclopropanecarboxamide]	81.7
Cn1ncc(O[C@H]2CCNC2)c1-c1ccc2nc(NC(=O)C3CC3)cn2c1 [Example 471, N-[6-[2-methyl-4-[(3S)-pyrrolidin-3-yl]oxy-pyrazol-3-yl]imidazo[1,2-a]pyridin-2-yl]cyclopropanecarboxamide]	55.8
CN1CC[C@H](Oc2cnn(C)c2-c2ccc3nc(NC(=O)C4CC4)cn3c2)C1 [Example 472, N-[6-[2-methyl-4-[(3S)-1-methylpyrrolidin-3-yl]oxy-pyrazol-3-yl]imidazo[1,2-a]pyridin-2-yl]cyclopropanecarboxamide]	106
CN1CC[C@@H]1COc1cnn(C)c1-c1ccn2nc(NC(=O)[C@@H]3C[C@@H]3C#N)cc2c1 [Example 475, cis-2-cyano-N-[5-[2-methyl-4-[(1-methylazetidin-2-yl)methoxy]pyrazol-3-yl]pyrazolo[1,5-a]pyridin-2-yl]cyclopropanecarboxamide]	51.9
CCN1CC[C@@H]1COc1cnn(C)c1-c1ccc2nc(Nc3cc(C)nc(C)n3)cn2c1 [Example 476, N-(2,6-dimethylpyrimidin-4-yl)-6-[4-[[(2R)-1-ethylazetidin-2-yl]methoxy]-2-methyl-pyrazol-3-yl]imidazo[1,2-a]pyridin-2-amine]	3.1
CCN1CC[C@@H]1COc1cnn(C(F)F)c1-c1ccn2nc(Nc3ccnc(C)n3)cc2c1 [Example 477, 5-[2-(difluoromethyl)-4-[[(2R)-1-ethylazetidin-2-yl]methoxy]pyrazol-3-yl]-N-(2-methylpyrimidin-4-yl)pyrazolo[1,5-a]pyridin-2-amine]	2.1
CCN1CC[C@@H]1COc1cnn(C(F)F)c1-c1ccn2nc(Nc3cc(C)ncn3)cc2c1 [Example 478, 5-[2-(difluoromethyl)-4-[[(2R)-1-ethylazetidin-2-yl]methoxy]pyrazol-3-yl]-N-(6-methylpyrimidin-4-yl)pyrazolo[1,5-a]pyridin-2-amine]	3
CCN1CC[C@@H]1COc1cnn(C(F)F)c1-c1ccn2nc(Nc3cc(C)nc(C)n3)cc2c1 [Example 479, 5-[2-(difluoromethyl)-4-[[(2R)-1-ethylazetidin-2-yl]methoxy]pyrazol-3-yl]-N-(2,6-dimethylpyrimidin-4-yl)pyrazolo[1,5-a]pyridin-2-amine]	1.1
CCN1CC[C@@H]1COc1cnn(C(F)F)c1-c1ccn2nc(Nc3ccnc(OC)n3)cc2c1 [Example 481, 5-[2-(difluoromethyl)-4-[[(2R)-1-ethylazetidin-2-yl]methoxy]pyrazol-3-yl]-N-(2-methoxypyrimidin-4-yl)pyrazolo[1,5-a]pyridin-2-amine]	17.6
CCN1CC[C@@H]1COc1cnn(C(F)F)c1-c1ccn2nc(Nc3cc(C)c(OC)nn3)cc2c1 [Example 483, 5-[2-(difluoromethyl)-4-[[(2R)-1-ethylazetidin-2-yl]methoxy]pyrazol-3-yl]-N-(6-methoxy-5-methyl-pyridazin-3-yl)pyrazolo[1,5-a]pyridin-2-amine]	0.9
CCN1CC[C@@H]1COc1cnn(C(F)F)c1-c1ccn2nc(Nc3cc(C)c(=O)n(C)n3)cc2c1 [Example 484, 6-[[5-[2-(difluoromethyl)-4-[[(2R)-1-ethylazetidin-2-yl]methoxy]pyrazol-3-yl]pyrazolo[1,5-a]pyridin-2-yl]amino]-2,4-dimethyl-pyridazin-3-one]	0.9
Cc1cc(Nc2cn3cc(-c4c(OC[C@H]5CCN5C)cnn4C)ccc3n2)nc(C)n1 [Example 485, N-(2,6-dimethylpyrimidin-4-yl)-6-[2-methyl-4-[[(2R)-1-methylazetidin-2-yl]methoxy]pyrazol-3-yl]imidazo[1,2-a]pyridin-2-amine]	1.1
CN1CC[C@@H](COc2cnn(CC3CC3)c2-c2ccn3nc(NC(=O)C4CC4)cc3c2)C1 [Example 489, N-[5-[2-(cyclopropylmethyl)-4-[[(3R)-1-methylpyrrolidin-3-yl]methoxy]pyrazol-3-yl]pyrazolo[1,5-a]pyridin-2-yl]cyclopropanecarboxamide]	13600
CCCn1ncc(OC[C@@H]2CCN(C)C2)c1-c1ccn2nc(NC(=O)C3CC3)cc2c1 [Example 490, N-[5-[4-[[(3R)-1-methylpyrrolidin-3-yl]methoxy]-2-propyl-pyrazol-3-yl]pyrazolo[1,5-a]pyridin-2-yl]cyclopropanecarboxamide]	7330
CN1CC[C@@H](COc2cnn(Cc3ccccc3)c2-c2ccn3nc(NC(=O)C4CC4)cc3c2)C1 [Example 491, N-[5-[2-benzyl-4-[[(3R)-1-methylpyrrolidin-3-yl]methoxy]pyrazol-3-yl]pyrazolo[1,5-a]pyridin-2-yl]cyclopropanecarboxamide]	> 50000
Cc1onc(OC2CCN(C)CC2)c1-c1ccn2nc(NC(=O)C3CC3)cc2c1 [Example 493, N-[5-[5-methyl-3-[(1-methyl-4-piperidyl)oxy]isoxazol-4-yl]pyrazolo[1,5-a]pyridin-2-yl]cyclopropanecarboxamide]	236
Cc1onc(OC2CN(C)C2)c1-c1ccn2nc(NC(=O)C3CC3)cc2c1 [Example 494, N-[5-[5-methyl-3-(1-methylazetidin-3-yl)oxy-isoxazol-4-yl]pyrazolo[1,5-a]pyridin-2-yl]cyclopropanecarboxamide]	424

Continued, values first:

IC50 [nM]	Compound
165	CN1CC[C@H](Oc2cnn(C)c2-c2ccn3nc(Nc4cc(C(F)(F)F)cnn4)cc3c2)C1 [Example 457, 5-[2-methyl-4-[(3S)-1-methylpyrrolidin-3-yl]oxy-pyrazol-3-yl]-N-[5-(trifluoromethyl)pyridazin-3-yl]pyrazolo[1,5-a]pyridin-2-amine]
167	CN1CC[C@H](Oc2cnn(C)c2-c2ccn3nc(Nc4ccnc(C(F)(F)F)n4)cc3c2)C1 [Example 458, 5-[2-methyl-4-[(3S)-1-methylpyrrolidin-3-yl]oxy-pyrazol-3-yl]-N-[2-(trifluoromethyl)pyrimidin-4-yl]pyrazolo[1,5-a]pyridin-2-amine]
145	CN1CC[C@H](Oc2cnn(C)c2-c2ccn3nc(Nc4cc(C(F)(F)F)ncn4)cc3c2)C1 [Example 459, 5-[2-methyl-4-[(3S)-1-methylpyrrolidin-3-yl]oxy-pyrazol-3-yl]-N-[6-(trifluoromethyl)pyrimidin-4-yl]pyrazolo[1,5-a]pyridin-2-amine]
164	CN1CC[C@H](Oc2cnn(C)c2-c2ccn3nc(Nc4cnc5c(ccn5C)c4)cc3c2)C1 [Example 460, 1-methyl-N-[5-[2-methyl-4-[(3S)-1-methylpyrrolidin-3-yl]oxy-pyrazol-3-yl]pyrazolo[1,5-a]pyridin-2-yl]pyrrolo[2,3-b]pyridin-5-amine]
72.4	COCc1cc(Nc2cc3cc(-c4c(O[C@H]5CCN(C)C5)cnn4C)ccn3n2)ncn1 [Example 461, N-[6-(methoxymethyl)pyrimidin-4-yl]-5-[2-methyl-4-[(3S)-1-methylpyrrolidin-3-yl]oxy-pyrazol-3-yl]pyrazolo[1,5-a]pyridin-2-amine]
86.5	CN1CC[C@H](Oc2cnn(C)c2-c2ccn3nc(Nc4ccc(C5CC5)nn4)cc3c2)C1 [Example 462, N-(6-cyclopropylpyridazin-3-yl)-5-[2-methyl-4-[(3S)-1-methylpyrrolidin-3-yl]oxy-pyrazol-3-yl]pyrazolo[1,5-a]pyridin-2-amine]
143	CN1CC[C@H](Oc2cnn(C(F)F)c2-c2ccn3nc(NC(=O)C4CC4)cc3c2)C1 [Example 470, N-[5-[2-(difluoromethyl)-4-[(3S)-1-methylpyrrolidin-3-yl]oxy-pyrazol-3-yl]pyrazolo[1,5-a]pyridin-2-yl]cyclopropanecarboxamide]
10	CCN1CC[C@@H]1COc1cnn(C(F)F)c1-c1ccn2nc(Nc3ccc(C)nn3)cc2c1 [Example 480, 5-[2-(difluoromethyl)-4-[[(2R)-1-ethylazetidin-2-yl]methoxy]pyrazol-3-yl]-N-(6-methylpyridazin-3-yl)pyrazolo[1,5-a]pyridin-2-amine]
1.8	CCN1CC[C@@H]1COc1cnn(C(F)F)c1-c1ccn2nc(Nc3cncc(C)n3)cc2c1 [Example 482, 5-[2-(difluoromethyl)-4-[[(2R)-1-ethylazetidin-2-yl]methoxy]pyrazol-3-yl]-N-(6-methylpyrazin-2-yl)pyrazolo[1,5-a]pyridin-2-amine]
432	CN1CCC(Oc2cnn(C)c2-c2ccn3nc(NC(=O)C4CC4)cc3c2)CC1 [Example 492, N-[5-[2-methyl-4-[(1-methyl-4-piperidyl)oxy]pyrazol-3-yl]pyrazolo[1,5-a]pyridin-2-yl]cyclopropanecarboxamide]
